Measured values: patent US20060159617A1, “Small technetium-99m and rhenium labeled agents and methods for imaging tissues, organs and tumors” (priority 2002, published 2006)

Assays:
[1] = biological target: T1, σ1 receptor (Cavia porcellus, UniProt Q60492); experiment: Sigma-1 receptor competition binding assay with [3H]-(+)-pentazocine; parameters: species or system guinea pig; conditions: apparent Ki (Cheng-Prusoff), brain membranes
T1 construct: The membranes were prepared from guinea pig brain (minus cerebellum) as described above; from tissue; host or cells: guinea pig brain (minus cerebellum) membranes
Experimental: The in vitro σ1 receptor binding affinities of rhenium coordinated complexes were determined in a competition assay using […] and high-affinity σ1 ligand [3H]-(+)-pentazocine (28 Ci/mmol, NEN Life Science Inc., Cambridge, Mass.). See, Mol. Neuropharmacol. 1993, 3, 117-126.
The membranes were prepared from guinea pig brain (minus cerebellum) as described above and stored at −70 ° C. Twelve concentrations of the nonradioactive rhenium complexes ranging from 1×10^−11 to 1×10^−3 and protein samples (0.15 mg of membrane protein) were incubated with […] [3H]-(+)-pentazocine in a total volume of 0.25 mL of Tris-HCl (50 mM, pH 8.0). Incubations were carried out for 120 min at 25° C. All assays were terminated by dilution with 5 mL of ice-cold Tris-HCl (10 mM), pH 8.0, and solution were filtered through glass-fiber filters (Whatman GF/F; presoaked in 0.5% polyethyleneimine for 30 min at 25° C.). Filters were then washed three times with 5 mL of ice-cold Tris-HCl (50 mM, pH 8.0), and counted in Hionic-Fluor cocktail (Packard, Groningen, the Netherlands). The corresponding IC50 values were determined with Origin 6.0 software (OriginLab, Northampton, Mass.) and were used for the calculation of the apparent Ki values with the Cheng-Prusoff equation. See, Biochem. Pharmacol. 1973, 22, 3099-3108.

[2] = biological target: α1 receptor; experiment: Alpha-1 receptor competition binding assay with [3H]-Prazosin; conditions: apparent Ki, rat frontal cortex
Experimental: The in vitro α1 receptor binding affinities of rhenium coordinated complexes were determined in a competition assay using rat frontal cortex and high-affinity α1 ligand [^3H]-Prazosin (80 Ci/mmol, NEN Life Science Inc., Cambridge, Mass.). See, Eur. J. Nucl. Med. 2002, 29, 82-87.
(§1) The frontal cortex of rat brain was prepared as described above and store at −70° C. until used in the binding assays. Ten concentrations of the nonradioactive rhenium complexes ranging from 1×10^−10 to 1×10^−3 and protein samples (0.15 mg of membrane protein) were incubated with 1.5 nM [^3H]-Prazosin in a total volume of 0.25 mL of Tris-HCl (50 mM, pH 7.4, 10 mM MgSO4). Incubations were carried out for 60 min at 25° C. All assays were terminated by dilution with 5 mL of ice-cold Tris-HCl (10 mM), pH 7.4, and solution were filtered through glass-fiber filters (Whatman GF/F; presoaked in 0.5% polyethyleneimine for 30 min at 25° C.). Filters were then washed three times with 5 mL of ice-cold Tris-HCl (50 mM, pH 7.4), and counted in Hionic-Fluor cocktail (Packard, Groningen, the Netherlands). The corresponding IC50 values were determined with Origin 6.0 software (OriginLab, Northampton, Mass.) and were used for the calculation of the apparent Ki values with the Cheng-Prusoff equation. See, Biocheni. Pharmacol. 1973, 22, 3099-3108.

[3] = biological target: T2, 5HT1A receptor (Rattus norvegicus, UniProt P19327); experiment: 5HT1A receptor competition binding assay with [3H]-8-OH-DPAT; conditions: apparent Ki, rat hippocampus
T2 construct: The brains were rapidly removed, and hippocampus, frontal cortex, hypothalamus, and striatum were hand-dissected on ice; from tissue; host or cells: male Sprague-Dawley rat hippocampus membranes
T2 sequence (P19327 1-422): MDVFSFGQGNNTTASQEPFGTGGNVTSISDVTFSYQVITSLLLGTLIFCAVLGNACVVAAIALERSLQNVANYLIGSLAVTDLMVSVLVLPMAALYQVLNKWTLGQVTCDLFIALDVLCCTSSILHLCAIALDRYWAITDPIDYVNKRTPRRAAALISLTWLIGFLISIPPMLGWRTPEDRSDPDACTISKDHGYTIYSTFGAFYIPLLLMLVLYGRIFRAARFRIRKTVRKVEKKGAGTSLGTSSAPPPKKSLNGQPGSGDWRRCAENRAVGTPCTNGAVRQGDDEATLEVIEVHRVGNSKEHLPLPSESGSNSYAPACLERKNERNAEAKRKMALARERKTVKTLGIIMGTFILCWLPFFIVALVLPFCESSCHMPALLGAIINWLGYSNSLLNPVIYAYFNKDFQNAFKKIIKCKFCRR
Experimental: The in vitro 5HT1A binding affinities of rhenium coordinated complexes were determined in a competition assay using rat hippocampus and high-affinity 5HT1A-ligand [^3H]-8-OH-DPAT (135 Ci/mmol, NEN Life Science Inc., Cambridge, Mass.). See, Brain Res. 1995, 673, 217-225.
Male Sprague-Dawley rats (weighing 150-170 g) were sacrificed using anesthesia agent isoflurane. The brains were rapidly removed, and hippocampus, frontal cortex, hypothalamus, and striatum were hand-dissected on ice and stored at −70° C. Tissue was thawed at room temperature and homogenized using a Brinkmann Polytron tissue disrupter in 50 volumes (wt/vol) of ice-cold 50 mM Tris-HCl buffer (pH 7.4). The suspension was centrifuged twice at 27,000 g for 20 min at 4° C. The membrane pellets were resuspended in 50 volumes of (wt/vol) Tris-HCl buffer and incubated at 37° C. for 20 min in a water bath, before a final centrifugation step (27,000 g; 20 min; 4° C.). The final tissue pellets were stored at −70° C. until assayed.
as §1, with “Twelve” for “The frontal cortex of rat brain was prepared as described above and store at −70° C. until used in the binding assays. Ten”, “1×10^−11” for “1×10^−10”, “1×10^−4” for “1×10^−3”, “[^3H]-8-OH-DPAT” for “[^3H]-Prazosin”, “Biochem.” for “Biocheni.”

T1 sequence (Q60492 whole entry): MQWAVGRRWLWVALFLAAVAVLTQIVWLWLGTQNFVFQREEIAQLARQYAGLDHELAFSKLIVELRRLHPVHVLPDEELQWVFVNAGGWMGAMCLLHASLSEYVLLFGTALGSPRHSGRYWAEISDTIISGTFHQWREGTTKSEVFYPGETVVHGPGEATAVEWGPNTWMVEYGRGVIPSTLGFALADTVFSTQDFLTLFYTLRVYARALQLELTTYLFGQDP

SMILES | Ki [1] [nM] | Ki [2] [nM] | Ki [3] [nM]
O=C1CN(CCCN2CCC(Cc3ccccc3)CC2)CC[S][Re]2(=[O])[S]CC[N]12 (stereo not drawn) [Re-15] | 547 | 322 ± 61 | 589 ± 70
COc1ccccc1C1CCN(CCCN2CC[S][Re]3(=[O])[S]CC[N]3C(=O)C2)CC1 (stereo not drawn) [Re-16] | 4830 | 48 ± 9 | 4.5 ± 0.4
